From patent US6057340A, “Oxazole derivatives as serotonin-1A receptor agonists” (American Home Products Corporation, priority 1999, dated 2000) come the findings set out here.

The target of the experiment is T1, human 5HT1A receptor (Homo sapiens, UniProt P08908).
T1 construct: expressed in transfected cells
T1 sequence (P08908 1-422): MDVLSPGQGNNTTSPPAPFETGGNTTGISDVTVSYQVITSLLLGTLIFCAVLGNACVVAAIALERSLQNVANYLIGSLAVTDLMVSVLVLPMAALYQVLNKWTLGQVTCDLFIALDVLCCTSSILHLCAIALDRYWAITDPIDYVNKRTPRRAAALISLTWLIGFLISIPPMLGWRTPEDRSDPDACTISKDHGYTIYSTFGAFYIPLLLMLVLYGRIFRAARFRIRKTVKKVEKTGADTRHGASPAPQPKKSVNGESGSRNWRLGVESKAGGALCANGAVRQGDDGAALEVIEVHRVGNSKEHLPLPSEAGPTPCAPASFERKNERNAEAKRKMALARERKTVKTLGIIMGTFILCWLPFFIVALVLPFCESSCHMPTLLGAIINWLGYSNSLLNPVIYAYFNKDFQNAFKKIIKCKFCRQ
As to the kind of experiment: displacement of [^3 H] 8-OH-DPAT binding in CHO cells stably transfected with human 5HT1A receptor. Conditions: final ligand concentration 1.5 nM, 30 minute incubation at room temperature. How it is done:
The compounds of this invention are 5-HT1A agonists. Affinity for the serotonin 5-HT1A receptor was established in a standard pharmacological test procedure which measures the compound's ability to displace [^3 H] 8-OH-DPAT binding in CHO cells stably transfected with human 5HT1A receptor. Stably transfected CHO cells are grown in DMEM containing 10% heat inactivated FBS and non-essential amino acids. Cells are scraped off the plate, transferred to centrifuge tubes, and washed twice by centrifugation (2000 rpm for 10 min., 4° C.) in buffer (50 mM Tris pH 7.5). The resulting pellets are aliquoted and placed at -80° C. On the day of assay, the cells are thawed on ice and resuspended in buffer. The binding assay is performed in a 96 well microtiter plate in a total volume of 250 μL. Non-specific binding is determined in the presence of […], final ligand concentration is 1.5 nM. Following a 30 minute incubation at room temperature, the reaction is terminated by the addition of ice cold buffer and rapid filtration through a GF/B filter presoaked for 30 minutes in 0.5% PEI. Compounds are initially tested in a single point assay to determine percent inhibition at […], and Ki values are determined for the active compounds.

On to `COc1ccccc1C1CCN(Cc2oc(C3CCCCC3)nc2Cc2ccccc2)CC1` [Example 9, 1-(4-Benzyl-2-cyclohexyl-oxazol-5-ylmethyl)-4-(2-methoxy-phenyl)-piperidine], for which the affinity, expressed as Ki, was 4.4 nM.
